From PubChem BioAssay (NCI)
“And” between values parts separate entries of the source, which are not always exact repeats. Equal entries are not always repeated.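 Grown in 96-well plates, cells were treated for 48 hours with each compound at five concentrations. Insufficient inhibition: endpoint recorded as highest concentration tested. GI50 is the concentration that inhibits growth by half. TGI denotes the concentration required for complete inhibition of growth.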

Key:
Experiment in all cases: NCI anticancer screen, dose series, 48 h
[1] = tested on: A549 NSCLC
[2] = tested on: HOP-62 NSCLC
[3] = tested on: HS 578T breast
[4] = tested on: IGROV1 ovarian
[5] = tested on: KM12 colon
[6] = tested on: M14 melanoma
[7] = tested on: NCI-H522 lung
[8] = tested on: RPMI-8226 leukemia
[9] = tested on: UACC-62 melanoma
[10] = tested on: SK-OV-3 ovarian

Row | SMILES | TGI [1] | TGI [2] | TGI [3] | TGI [4] | TGI [5] | TGI [6] | TGI [7] | TGI [8] | TGI [9] | GI50 [1] [µM] | GI50 [2] [µM] | GI50 [3] [µM] | GI50 [4] [µM] | GI50 [5] [µM] | GI50 [6] [µM] | GI50 [7] [µM] | GI50 [8] [µM] | GI50 [10] [µM] | TGI [10] | GI50 [9] [µM]
1 | COc1ccc(CC(C#N)c2cc(OC)c(OC)c(OC)c2)cc1 (centres undefined) | > 100 µM | > 100 µM | > 100 µM | > 100 µM | 4.95 µM | > 100 µM | 0.135 µM | 46.6 µM | > 100 µM | – | – | – | – | – | – | – | – | – | – | –
2 | O=C(Nn1c2c(sc1=NC1CC1)C(=O)c1ccccc1C2=O)c1cc2ccc1CCc1ccc(cc1)CC2 | 6.07 µM | 17.2 µM | 6.03 µM | 4.74 µM | 13.7 µM | 2.83 µM | 4.69 µM | 6.47 µM | 3.52 µM | 2.42 | 4.28 | 2.09 | 1.16 | 3.12 | 1.33 | 1.6 | 1.86 | 7.03 | 21.4 µM | 1.62
3 | CCCCCC/C=C\CCCCCCCCCc1c(O)c(OC)cc(O)c1CN(C)C | 17.1 µM | 28.9 µM | 10.9 µM | 11 µM | 11.7 µM | 27.8 µM | 3.25 µM | 7.62 µM | 23.3 µM | – | – | – | – | – | – | – | – | – | 28.1 µM | –
4 | c1cc(-c2cnn3nc(N4CCOCC4)ccc23)nc(NC2CC2)n1 | > 25 µM | > 25 µM | > 22.8 µM | > 25 µM | > 25 µM | > 25 µM | > 25 µM | > 25 µM | > 25 µM | 7.87 | 9.27 | 8.12 | 10.3 | 8.13 | 9.04 | 13.5 | 6.71 | 14.6 | > 25 µM | 7.76
5 | COc1cccc2cc(N(C)c3nc(C)nc4ccsc34)ccc12 | 16 µM | 18.9 µM | 22.4 µM | 14.5 µM | 11.4 µM | 12.6 µM | – | 6.02 µM | 12.5 µM | < 0.01 | – | < 0.01 | < 0.01 | < 0.01 | < 0.01 | < 0.01 | < 0.01 | < 0.01 | 35.8 µM | < 0.01
6 | O=C1C(Nc2cccc(O)c2)=C(Sc2ccc(Cl)cc2)C(=O)N1Cc1ccccc1 | 35.9 µM | 35.7 µM | 58.1 µM | > 100 µM | 27.8 µM | 38.5 µM | > 100 µM | 7.42 µM | 27.2 µM | 5.38 | 15.8 | 13.3 | 26.8 | 10.6 | 6.94 | 21.3 | 2.23 | 12.6 | 30.6 µM | 10.4
7 | Cc1sc2c(c1C)C(c1ccc(Cl)cc1)=N[C@@H](CC(=O)Nc1ccc(O)cc1)c1nnc(C)n1-2 | 26.8 µM | 17.2 µM | 27.2 µM | 39.9 µM | 29.6 µM | 20.2 µM | 16.1 µM | 11.8 µM | 18.1 µM | 2.6 | 0.18 | 0.169 | 2.5 | 4.52 | 0.276 | 0.262 | 0.168 | 0.15 | 15 µM | 0.162
8 | COc1cc2c(cc1-c1c(C)noc1C)ncc1[nH]c(=O)n([C@H](C)c3ccccn3)c12 | > 100 µM | > 100 µM | > 100 µM | > 34.2 µM | > 100 µM | > 100 µM | 7.07 µM | 3.54 µM | > 87.2 µM | 6.17 | 0.94 | 0.295 | 0.765 | 3.01 | 3.19 | 0.0975 | 0.124 | 0.6 | > 50.1 µM | 0.145
9 | CN(C)CCC(=O)NCc1c2nc3ccccc3nc2n2ccccc12 | > 100 µM | > 100 µM | > 100 µM | 28.4 µM | > 100 µM | 69.5 µM | > 100 µM | > 100 µM | > 100 µM | > 100 | 24 | > 100 | 0.338 | 26 | 26.3 | 66.1 | 18.5 | > 100 | > 100 µM | > 100
10 | C=C(CN(CCN1CCOCC1)CC(=C)c1ccc(C(=O)Nc2ccccc2N)cc1)c1ccc(C(=O)Nc2ccccc2N)cc1 | 24.9 µM | > 50 µM | 42.8 µM | 29.1 µM | 19.5 µM | > 50 µM | 28.9 µM | > 50 µM | 10.6 µM | 9.38 | 9.94 | 5.55 | 7.37 | 9.12 | 15.8 | 2.62 | 2.68 | 8.26 | 17.2 µM | 2.48
11 | Cc1cccc2cc3ccc4ccccc4c3cc12 | > 100 µM | > 100 µM | > 100 µM | > 100 µM | > 100 µM | > 100 µM | 95.5 µM | > 100 µM | > 100 µM | – | – | – | – | – | – | – | – | – | > 100 µM | –
12 | O=C(Nc1ccc([N+](=O)[O-])cc1)c1cc2ccccc2cc1O | > 21.5 µM | 8.69 µM | > 100 µM | 12.5 µM | 2.68 µM | – | 1.61 µM | 0.727 µM | 1.45 µM | 0.454 | 0.939 | 0.618 | 0.575 | 0.698 | – | 0.268 | 0.291 | 0.384 | 15.7 µM | 0.336
13 | O=C1/C(=C/c2ccc(C(F)(F)F)cc2)COc2ccc(O)cc21 | 24.9 µM | 25.4 µM | – | 3.17 µM | 3.41 µM | 10.6 µM | 3.69 µM | 0.885 µM | 6.84 µM | 11.8 | 12.8 | 2.7 | 1.6 | 1.75 | 3.24 | 1.59 | 0.29 | 16.2 | 29.7 µM | 2.36
14 | CO[C@H]1/C=C/C[C@H](C)[C@@H](C)S(=O)(=O)NC(=O)c2ccc3c(c2)N(C[C@@H]2CC[C@H]21)C[C@@]1(CCCc2cc(Cl)ccc21)CO3 | 12.7 µM | 6.2 µM | 7.24 µM | 10.6 µM | 11 µM | 7.31 µM | 3.3 µM | 0.534 µM | 2.46 µM | 3.29 | 2.35 | 1.54 | 3.08 | 3.17 | 2.4 | 1.39 | 0.132 | 3.5 | 12.6 µM | 0.659
15 | NC(N)=N/N=C(/c1ccccc1)c1ccc(O)cc1O | > 100 µM | > 100 µM | 80.3 µM | > 100 µM | > 100 µM | 58.7 µM | 34.5 µM | 79.8 µM | > 100 µM | – | – | – | – | – | – | – | – | – | > 100 µM | –
16 | CN(C)CCN1C(=O)c2cccc3c(-c4ccc5ncn(C6CCCCC6)c5c4)ccc(c23)C1=O | 2.56 µM | 6.75 µM | 20.8 µM | 5.86 µM | 13.2 µM | 3.61 µM | 5.24 µM | 6.1 µM | – | 1.12 | 1.69 | 3.51 | 1.12 | 2.24 | 1.7 | 1.85 | 1.03 | 2.59 | 8.64 µM | –
17 | C=C1C(=O)O[C@H]2[C@H]1CC/C(COC(=O)NCc1cccc(OC)c1)=C\CC[C@@]1(C)O[C@@H]21 | 12.8 µM | 28.3 µM | 37.8 µM | 8.4 µM | 25.3 µM | 5.16 µM | 2.8 µM | 6.4 µM | 4.24 µM | 3.1 | 13.2 | 13 | 2.76 | 9.98 | 2.08 | 1.22 | 1.98 | 14.9 | 28.2 µM | 1.91
18 | OCCCCC#Cc1ccccc1C#Cc1cccs1 | 31.1 µM | 26.5 µM | 39.1 µM | 30.5 µM | 48 µM | – | 35.6 µM | 71 µM | 25.9 µM | 17.4 | 13 | 14.9 | 16.5 | 16.6 | – | 18.5 | 22 | 15.5 | 30.6 µM | 12.9
19 | CN1CCN(c2ccc([N+](=O)[O-])c3no[n+]([O-])c23)CC1 | 3.53 µM and 2.06 µM | 1.26 µM and 1.39 µM | 2.41 µM and 1.93 µM | 0.919 µM and 0.362 µM | 1.6 µM and 0.291 µM | 1.7 µM and 0.927 µM | 0.507 µM and 0.26 µM | 0.795 µM and 2.43 µM | 2.64 µM and 1.84 µM | 0.385 | 0.318 | 0.228 | 0.0516 | 0.144 | 0.177 | 0.115 | 0.436 | 0.87 | 1.73 µM and 2.12 µM | 0.471
20 | CCOC(=O)c1cn2ncnc(Oc3ccc(NC(=O)NCCN(CC)CC)c(Cl)c3)c2c1C | 40.2 µM | 29.5 µM | 21.7 µM | 26.2 µM | 49.5 µM | 3.75 µM | 5.92 µM | 3.92 µM | 3.72 µM | 15.8 | 12 | 3.88 | 6.71 | 10.8 | 1.89 | 2.3 | 1.73 | 20.7 | 50.2 µM | 1.95
21 | COc1ccc2nc(C3=CN(C4OC(CO)C(O)C(O)C4O)C4C=CC=CC34)sc2c1 (centres undefined) | > 100 µM | 56.9 µM | 94.4 µM | 34.8 µM | 75.7 µM | 93.8 µM | 76.5 µM | > 100 µM | 67.6 µM | 28.3 | 22.6 | 34.4 | 13.5 | 24.1 | 33 | 24 | 40.3 | 96 | > 100 µM | 22.2
22 | COC(=O)C1=C2CO[C@@H]3C[C@H]4C(C)(C)CCC[C@]4(C)C(=CC1)[C@]23C | > 100 µM | > 100 µM | > 100 µM | > 100 µM | 74.1 µM | > 100 µM | > 100 µM | 29.9 µM | > 100 µM | 36.8 | 45.1 | 47 | 60.7 | 21.4 | 32.6 | 29.4 | 13.6 | – | – | 41.9
23 | Cc1cc(S(=O)(=O)Nc2nc3ccsc3c(=O)n2Cc2ccccc2)c(S)cc1Cl | > 100 µM | 46.6 µM | > 100 µM | > 100 µM | 48.2 µM | 49.6 µM | > 100 µM | > 100 µM | 44.4 µM | 34.5 | 22.7 | 42.3 | 43.1 | 20.1 | 21.8 | 37 | 33.4 | – | – | 21.5
24 | CC(C)(C)n1cc(-c2ccnc(NCCCNS(=O)(=O)c3ccc(Cl)cc3)c2)c(-c2cccc(O)c2)n1 | 4.97 µM | 3.52 µM | 4.81 µM | 4.39 µM | 4.44 µM | 3.45 µM | 3.91 µM | – | 3.29 µM | 1.97 | 1.74 | 1.84 | 1.88 | 2.08 | 1.72 | 1.92 | – | 2.35 | 6.08 µM | 1.65
25 | CCCCCCCCCCC(CN(CC)CC)C(O)c1ccccc1 (centres undefined) | 5.41 µM | – | 4.07 µM | 3.51 µM | 3.39 µM | 3.4 µM | 3.8 µM | 4.88 µM | 3.46 µM | 2.49 | – | 1.75 | 1.82 | 1.83 | 1.74 | 1.83 | 2.05 | 2.78 | 9.52 µM | 1.78
26 | CCOC(CN(C)C(=O)OCC(Cl)(Cl)Cl)OCC | > 100 µM | > 100 µM | > 100 µM | > 100 µM | > 100 µM | > 100 µM | > 100 µM | – | > 100 µM | – | – | – | – | – | – | – | – | – | > 100 µM | –
27 | Cc1ccc2oc(=O)cc(C3c4ccc([nH]4)C(c4cc(=O)oc5ccc(C)cc45)c4ccc([nH]4)C(c4cc(=O)oc5ccc(C)cc45)c4ccc([nH]4)C(c4cc(=O)oc5ccc(C)cc45)c4ccc3[nH]4)c2c1 (centres undefined) | 1.54 µM | 1.27 µM | 2.02 µM | 1.73 µM | – | 0.0766 µM | 0.796 µM | 0.578 µM | 0.8 µM | 0.063 | 0.0463 | 0.0351 | 0.0492 | – | 0.0253 | 0.212 | 0.0516 | 0.0247 | 0.0687 µM | 0.0324
